{"source": "patent US12509429B2", "about": "“Hydroxybenzamide derivatives and methods of use in treating diabetes” (THE BOARD OF REGENTS OF THE UNIVERSITY OF OKLAHOMA, priority 2022, dated 2025)", "format_in_all_cases": "cell-based, rat", "key": {"[1]": {"tested_on": "INS-1 cells", "test": "Cell viability assay: protection of INS-1 cells from tunicamycin (Tm)-induced loss of viability (CellTiter-Glo, intracellular ATP)", "settings": "Rattus norvegicus, INS1", "procedure": "INS-1 cells were resuspended in RPMI 1640 medium containing 10% FBS and seeded at 5×10^3 cells/well in a 384-well plate. After overnight 24 h incubation, compounds were added to the wells at the indicated concentration using a pin-transfer robot (PerkinElmer). Tm in RPMI 1640 medium containing 10% FBS was then added at a final concentration of 0.15 μg/mL. After 72 h, the medium was removed and 20 μL of CellTiter-Glo reagent (Promega) was added. Luminescence was measured 10 min later using a Synergy Neo2 plate reader (Biotek).\nHydroxy benzamide (HBA) derivatives were synthesized based on various scaffolds and evaluated for their viability of rat INS-1 β cells in the presence of tunicamycin (Tm), a potent ER stress inducer that inhibits N-linked glycosylation of proteins. The maximum activities and the concentrations that reach half-maximal activity (EC50) of the compounds were evaluated by the degree of increase in viability of INS-1 cells co-treated with the compounds in the presence of Tm compared with Tm treatment alone."}, "[2]": {"tested_on": "INS-1 β cells", "test": "Western blotting of cleaved caspase-3 and PARP (Tm-induced apoptosis)", "settings": "INS-1 cells, Tm 0.3 μg/ml, 24 h, co-treatment at 1 and 5 μM, Western blot", "procedure": "INS-1 cells were treated with or without Tm (0.3 μg/ml) in the presence of WO3i at indicated concentrations or DMSO for indicated times. Cleaved caspase-3 and PARP were determined by Western blotting. GADPH was used as a loading control. The data shown are representative of 3 independent experiments.\nINS-1 cells cultured in 60-mm dishes were washed with PBS and lysed with lysis buffer (Cell Signaling Technology, Danvers, MA) containing protease and phosphatase inhibitors (Thermo). Aliquots of 20 μg total protein were separated on 10% SDS-PAGE gels (Life Technologies) and transferred to PVDF membranes (Life Technologies). The membranes were probed with primary antibodies followed by the appropriate HRP-conjugated secondary antibodies. Blots were then developed using Pierce ECL Western Blotting Substrate (cat no 32106). The primary antibodies and dilutions used were: cleaved caspase 3 (1:1000, 9661, Cell Signaling Technology, MA, USA), and PARP (1:1000, 9542L, Cell Signaling Technology), and GAPDH (1:1000, SC-32233, Santa Cruz Biotechnology). Secondary antibodies used: goat anti rabbit IgG and goat anti-mouse IgG, 1:5000; Santa Cruz Biotechnology, Santa Cruz, CA).\nTo determine whether the increase in cell viability following treatment with WO3i was caused by a suppression of apoptotic cell death, levels of cleaved caspase-3 and cleaved PARP were assessed by Western blotting. […] However, upon severe ER stress, caspase 3 undergoes proteolytic cleavage to form the active enzyme, which in turns cleaves PARP, to trigger apoptotic cell death."}, "[3]": {"tested_on": "INS-1 β cells", "test": "Live-cell phase-contrast images of INS-1 cells under ER stress", "settings": "Tm 0.5 μg/mL, compound 5 μM, 24 h, phase-contrast/bright field", "procedure": "INS-1 cells were treated with or without Tm (0.5 μg/mL) in the presence of WO3i (5 μM) or DMSO (0.1%) for 24 h, and live-cell phase-contrast images were acquired (magnification 10×)."}, "[4]": {"tested_on": "CHOP mRNA", "test": "qRT-PCR of Tm-induced CHOP mRNA expression in INS-1 cells", "settings": "compound 5 μM, Tm 0.5 μg/ml, 4 h and 8 h, normalized to cyclophilin A, listed as WO3i", "procedure": "CHOP mRNA levels by qRT-PCR in INS-1 cells treated for 4 h (A) and 8 h (B) with WO3i at 5 μM in the presence or absence of Tm (0.5 μg/ml). Data are presented as the fold change after normalized to cyclophilin A mRNA.\n(§1) Total RNA was extracted from INS-1 cells using TRIzol reagent (Invitrogen, Carlsbad, CA) according to the manufacturer's protocol. 2 μg of total RNA was reverse transcribed using Superscript IV kit (Invitrogen). Real-time PCR was performed with a CFX96 Real-Time PCR detection system (Bio-Rad, CA) using SYBR Select Master Mix (Applied Biosystems, CA).\n(§2) Relative mRNA levels were normalized against Cyclophilin A and were determined by ΔΔCt calculated from the difference in ΔCt values between the target gene and Cyclophilin A with and without treatment, based on comparative CT (cycle threshold) method."}, "[5]": {"tested_on": "ATF6 activation (BiP mRNA)", "test": "qRT-PCR of BiP mRNA (Tm-induced ATF6 activation) in INS-1 cells", "settings": "compound 5 μM, Tm 0.5 μg/ml, 4 h and 8 h, normalized to cyclophilin A, listed as WO3i", "procedure": "BiP mRNA levels by qRT-PCR in INS-1 cells treated for 4 h (A) and 8 h (B) with WO3i at 5 μM in the presence or absence of Tm (0.5 μg/ml). Data are presented as the fold change after normalized to cyclophilin A mRNA.\nas §1, §2"}, "[6]": {"tested_on": "IRE1α activation (Xbp1-s mRNA)", "test": "qRT-PCR of spliced Xbp1 mRNA (Tm-induced IRE1α activation) in INS-1 cells", "settings": "compound 5 μM, Tm 0.5 μg/ml, 4 h and 8 h, normalized to cyclophilin A, listed as WO3i", "procedure": "Spliced Xbp1 (Xbp1-s) mRNA levels by qRT-PCR in INS-1 cells treated for 4 h (A) and 8 h (B) with WO3i at 5 μM in the presence or absence of Tm (0.5 μg/ml). Data are presented as the fold change after normalized to cyclophilin A mRNA.\nas §1, §2"}, "[7]": {"tested_on": "PERK activation (ATF4 mRNA)", "test": "qRT-PCR of ATF4 mRNA (Tm-induced PERK activation) in INS-1 cells", "settings": "compound 5 μM, Tm 0.5 μg/ml, 4 h and 8 h, normalized to cyclophilin A, listed as WO3i", "procedure": "ATF4 mRNA levels by qRT-PCR in INS-1 cells treated for 4 h (A) and 8 h (B) with WO3i at 5 μM in the presence or absence of Tm (0.5 μg/ml). Data are presented as the fold change after normalized to cyclophilin A mRNA.\nas §1, §2"}}, "note": "Entries after “also recorded” stand apart in the source; their conditions may differ.", "data": [{"smiles": "O=C(NCc1ccc(C(F)(F)F)cc1)c1cccc(O)c1", "note": "[Compound 3i, 3-Hydroxy-N-(4-(trifluoromethyl)benzyl)benzamide]", "values": [{"measurement": "Emax", "setting": "[1]; % rescue from Tm (0.15 μg/mL)-induced reduction of INS-1 cell viability (intracellular ATP), Tm alone 0%, DMSO without Tm 100%, 72 h, read-out: Maximum % of Protection", "value": 100, "unit": "%"}, {"measurement": "EC50", "setting": "[1]; INS-1 cell viability, Tm 0.15 μg/mL, ten 2-fold serial titration points, GraphPad Prism", "value": 190, "unit": "nM"}, {"measurement": "Tm-induced apoptosis: cleavage of caspase-3 and PARP", "setting": "[2]", "value": "suppresses"}, {"measurement": "Tm-induced apoptosis: cleavage of caspase-3 and PARP", "setting": "[2]; listed as WO3", "value": "almost completely abolished"}, {"measurement": "Tm-induced apoptosis: cleavage of caspase-3 and PARP", "setting": "[2]; listed as WO3M", "value": "suppresses"}, {"measurement": "Tm-induced apoptosis: cleavage of caspase-3 and PARP", "setting": "[2]; listed as WO3i", "value": "suppresses"}, {"measurement": "Preservation of INS-1 β cell viability under ER stress (images)", "setting": "[3]; listed as WO3M", "value": "significantly more cells were preserved"}, {"measurement": "Preservation of INS-1 β cell viability under ER stress (images)", "setting": "[3]; listed as WO3i", "value": "preserves the INS-1 β cell viability"}, {"measurement": "Tm-induced CHOP mRNA expression", "setting": "[4]", "value": "markedly diminished; also recorded: suppresses"}, {"measurement": "Tm-induced BiP mRNA level (ATF6 activation)", "setting": "[5]", "value": "completely suppressed; also recorded: suppresses"}, {"measurement": "Tm-induced spliced Xbp1 (Xbp1-s) mRNA level (IRE1α activation)", "setting": "[6]", "value": "eliminated; also recorded: suppresses"}, {"measurement": "Tm-induced ATF4 mRNA level (PERK activation)", "setting": "[7]", "value": "abolished; also recorded: suppresses"}]}]}
